Source: article PMC4207771, “Identification and Characterization of Novel Renal Sensory Receptors” (PLoS ONE, 2014)
Entries after “also recorded” stand apart in the source; their conditions may differ. Read-outs that look alike come from different tables or passages of the source.

Tests used:
Olfr691 [1] = target: T1, Olfr691 (Mus musculus, UniProt Q8VGW5); assay: dual-luciferase (cAMP/CREB reporter) ligand screen, Olfr691 in HEK293T cells; assay type: cell-based; settings: for Olfr691 response in dual-luciferase assay: chemicals tested individually, screened at 500uM (* also at 100uM); for Relative response (% of 4-pentenoate response) at 500 µM: HEK-293T, 4 h, 0.5 mM ligand, normalized to the response of Olfr691 to the strongest ligand; for EC50: Olfr691 co-expressed with RTP1S in HEK293T cells, 10 µM to 7.5 mM
T1 construct: Lucy (N); expressed in transfected cells; host or cells: HEK293T, co-transfected with RTP1S
T1 sequence (Q8VGW5 1-322): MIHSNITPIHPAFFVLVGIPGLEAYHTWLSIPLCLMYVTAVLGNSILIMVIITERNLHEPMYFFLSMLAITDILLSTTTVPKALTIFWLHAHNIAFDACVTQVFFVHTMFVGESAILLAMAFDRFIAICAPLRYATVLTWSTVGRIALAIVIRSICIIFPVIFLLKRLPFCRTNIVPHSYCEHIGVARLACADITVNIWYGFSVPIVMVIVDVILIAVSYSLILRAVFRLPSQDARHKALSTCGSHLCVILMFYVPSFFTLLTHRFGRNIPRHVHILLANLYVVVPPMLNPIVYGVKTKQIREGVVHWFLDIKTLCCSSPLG

Olfr545 = assay: dual-luciferase (cAMP/CREB reporter) ligand screen, Olfr545 in HEK293T cells; assay type: cell-based, mouse; parameters: key to Olfr545 response in dual-luciferase assay: ‘+’ or ‘–‘ in each column indicates if the olfactory receptor responded or had no effect to that specific chemical; -: ‘+’ or ‘–‘ in each column indicates if the olfactory receptor responded or had no effect to that specific chemical; settings: chemicals tested individually, screened at 500uM (* also at 100uM)
Olfr99 = assay: dual-luciferase (cAMP/CREB reporter) ligand screen, Olfr99 in HEK293T cells; assay type: cell-based, mouse; parameters: key: ‘+’ or ‘–‘ in each column indicates if the olfactory receptor responded or had no effect to that specific chemical; -: ‘+’ or ‘–‘ in each column indicates if the olfactory receptor responded or had no effect to that specific chemical; settings: chemicals tested individually, screened at 500uM (* also at 100uM)
Olfr31 = target: T2, Olfr31 (Mus musculus, UniProt Q3KPA7); assay: dual-luciferase (cAMP/CREB reporter) ligand screen, Olfr31 in HEK293T cells; assay type: cell-based; settings: chemicals tested individually, screened at 500uM (* also at 100uM)
T2 construct: expressed in transfected cells; host or cells: HEK293T, co-transfected with RTP1S
T2 sequence (Q3KPA7 1-317): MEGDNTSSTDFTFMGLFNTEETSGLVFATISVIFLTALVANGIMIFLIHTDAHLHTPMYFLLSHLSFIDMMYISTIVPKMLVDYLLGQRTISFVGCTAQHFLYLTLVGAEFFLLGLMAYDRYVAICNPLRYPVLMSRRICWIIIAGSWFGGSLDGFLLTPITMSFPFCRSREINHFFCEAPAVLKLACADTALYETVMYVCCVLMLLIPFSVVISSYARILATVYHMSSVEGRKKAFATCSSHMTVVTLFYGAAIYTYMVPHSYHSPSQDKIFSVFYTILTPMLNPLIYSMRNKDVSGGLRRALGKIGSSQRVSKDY

Olfr693 = assay: dual-luciferase (cAMP/CREB reporter) ligand screen, Olfr693 in HEK293T cells; assay type: cell-based, mouse; parameters: key: ‘+’ or ‘–‘ in each column indicates if the olfactory receptor responded or had no effect to that specific chemical; -: ‘+’ or ‘–‘ in each column indicates if the olfactory receptor responded or had no effect to that specific chemical; settings: chemicals tested individually, screened at 500uM (* also at 100uM)
Olfr691 [2] = target: T1, Olfr691; parameters: method as in PMID 15550249; settings: cited from earlier work
[3] = parameters: method as in PMID 20304335, PMID 15230715; settings: patients treated with valproate as an antiepileptic drug; cited from earlier work
[4] = luciferase assay, co-expressed with RTP1S

For `CCCCC=O` [n-valeraldehyde], the “Olfr691 response in dual-luciferase assay” value (Olfr691 [1]) was “-”, the “Olfr691 response (in words)” value (Olfr691 [1]; luciferase assay, co-expressed with RTP1S, listed as pentanal) was “did not induce a response” and the “Olfr545 response in dual-luciferase assay” value (“Olfr545 response” below) (Olfr545) was “-”. For the same compound, the “Olfr99 response in dual-luciferase assay” value (Olfr99) was “-”, the “Olfr31 response in dual-luciferase assay” value (Olfr31) was “-” and the “Olfr693 response in dual-luciferase assay” value (from here on “Olfr693 response”) (Olfr693) was “-”. The “previously reported ligand of Olfr691” value (Olfr691 [2]; listed as pentanal) was “previously reported”.
For `CCCC(CCC)C(=O)O` [valproate, reference compound], the Relative response (% of 4-pentenoate response) at 500 µM (Olfr691 [1]) was 98 ± 5%, the EC50 (Olfr691 [1]) was 478 µM and the “Olfr691 response in dual-luciferase assay” value (Olfr691 [1]) was “+”. The “Olfr691 response (in words)” value (Olfr691 [1]; [4]) was “highest affinity”, the “Olfr545 response” value (Olfr545) was “-” and the “Olfr99 response in dual-luciferase assay” value (Olfr99) was “-”. For the same compound, the “Olfr693 response” value (Olfr693) was “-” and the “renal adverse effect in patients” value [3] was “develop Fanconi syndrome”.
In the case of `O=C1CC2CC[C@H]1C2` [norcamphor], the “Olfr691 response in dual-luciferase assay” value (Olfr691 [1]) is reported as “-”, the “Olfr545 response” value (Olfr545) is reported as “-” and the “Olfr99 response in dual-luciferase assay” value (Olfr99) is reported as “-”. The “Olfr31 response in dual-luciferase assay” value (Olfr31) was “-” and the “Olfr693 response” value (Olfr693) was “-”.
In the case of `CC(C)CCC(=O)O` [isocaproate], the Relative response (% of 4-pentenoate response) at 500 µM (Olfr691 [1]) is reported as 37 ± 2.7%, the “Olfr691 response in dual-luciferase assay” value (Olfr691 [1]) is reported as “+” and the “Olfr545 response” value (Olfr545) is reported as “-”. For the same compound, the “Olfr99 response in dual-luciferase assay” value (Olfr99) was “-”, the “Olfr31 response in dual-luciferase assay” value (Olfr31) was “-” and the “Olfr693 response” value (Olfr693) was “-”.
For `CCCCCCCCCCCC(=O)O` [dodecanoic acid], the “Olfr691 response in dual-luciferase assay” value (Olfr691 [1]) was “-”, the “Olfr545 response” value (Olfr545) was “-” and the “Olfr99 response in dual-luciferase assay” value (Olfr99) was “-”. For the same compound, the “Olfr31 response in dual-luciferase assay” value (Olfr31) was “-” and the “Olfr693 response” value (Olfr693) was “-”.
For `O=C1CCCCC1` [cyclohexanone], the “Olfr691 response in dual-luciferase assay” value (Olfr691 [1]) was “-”, the “Olfr545 response” value (Olfr545) was “-” and the “Olfr99 response in dual-luciferase assay” value (Olfr99) was “-”. For the same compound, the “Olfr31 response in dual-luciferase assay” value (Olfr31) was “-” and the “Olfr693 response” value (Olfr693) was “-”.
For `CCCC(=O)C(C)=O` [2,3-hexadione], the “Olfr691 response in dual-luciferase assay” value (Olfr691 [1]) was “-”, the “Olfr545 response” value (Olfr545) was “-” and the “Olfr99 response in dual-luciferase assay” value (Olfr99) was “-”. The “Olfr31 response in dual-luciferase assay” value (Olfr31) was “-” and the “Olfr693 response” value (Olfr693) was “-”.
In the case of `CC(C)(O)CCCC1=CCC(C=O)CC1` (stereo not drawn) [Lyral], the “Olfr691 response in dual-luciferase assay” value (Olfr691 [1]) is reported as “-”, the “Olfr545 response” value (Olfr545) is reported as “-” and the “Olfr99 response in dual-luciferase assay” value (Olfr99) is reported as “-”. For the same compound, the “Olfr31 response in dual-luciferase assay” value (Olfr31) was “-” and the “Olfr693 response” value (Olfr693) was “-”.
For `CC(C)C=O` [Isobutyraldehyde], the “Olfr691 response in dual-luciferase assay” value (Olfr691 [1]) was “-”, the “Olfr545 response” value (Olfr545) was “-” and the “Olfr99 response in dual-luciferase assay” value (Olfr99) was “-”. The “Olfr31 response in dual-luciferase assay” value (Olfr31) was “-” and the “Olfr693 response” value (Olfr693) was “-”.
For `CCCCC(=O)O` [valerate], the Relative response (% of 4-pentenoate response) at 500 µM (Olfr691 [1]) was 98 ± 5.7%, the EC50 (Olfr691 [1]) was 852 µM and the “Olfr691 response in dual-luciferase assay” value (Olfr691 [1]) was “+”. For the same compound, the “Olfr691 response (in words)” value (Olfr691 [1]; [4]) was “dose dependent manner; also recorded: able to confirm”, the “Olfr545 response” value (Olfr545) was “-” and the “Olfr99 response in dual-luciferase assay” value (Olfr99) was “-”. For the same compound, the “Olfr31 response in dual-luciferase assay” value (Olfr31) was “-”, the “Olfr693 response” value (Olfr693) was “-” and the “previously reported ligand of Olfr691” value (Olfr691 [2]) was “previously reported”.
With `O=C(O)c1ccccc1` [benzoate] the “Olfr691 response (in words)” value (Olfr691 [1]) was “induced Olfr691 responses”, the Relative response (% of 4-pentenoate response) at 500 µM (Olfr691 [1]) was 34 ± 1% and the “Olfr691 response in dual-luciferase assay” value (Olfr691 [1]) was “+”. For the same compound, the “Olfr545 response” value (Olfr545) was “-”, the “Olfr99 response in dual-luciferase assay” value (Olfr99) was “-” and the “Olfr31 response in dual-luciferase assay” value (Olfr31) was “-”. The “Olfr693 response” value (Olfr693) was “-”.
With `O=C1CCCCCCCCCCCCCCO1` [omega-pentadecalactone] the “Olfr691 response in dual-luciferase assay” value (Olfr691 [1]) was “-”, the “Olfr545 response” value (Olfr545) was “-” and the “Olfr99 response in dual-luciferase assay” value (Olfr99) was “-”. For the same compound, the “Olfr31 response in dual-luciferase assay” value (Olfr31) was “-” and the “Olfr693 response” value (Olfr693) was “-”.
For `C/C=C/C(=O)O` [crotonic acid], the Relative response (% of 4-pentenoate response) at 500 µM (Olfr691 [1]) was 39 ± 3%, the “Olfr691 response in dual-luciferase assay” value (Olfr691 [1]) was “+” and the “Olfr545 response” value (Olfr545) was “-”. For the same compound, the “Olfr99 response in dual-luciferase assay” value (Olfr99) was “-”, the “Olfr31 response in dual-luciferase assay” value (Olfr31) was “-” and the “Olfr693 response” value (Olfr693) was “-”.
